Measurements from US11078170B2 (Assembly Biosciences, Inc., priority 2017, dated 2021).

What follows are compounds tested on HBV viral production from HepAD38 cells (assay: Activity of test compounds on viral production from HepAD38 cells (viral load by qPCR of HBV core sequence in supernatant)). Details: Hepatitis B virus, 120 h, 5 days incubation, HBV DNA in supernatant by qPCR, top concentration 10 μM, read-out: Viral Load EC50 Activity range.
Assay type: cell-based
In short: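 HepAD38 cells, 50,000/well in tetracycline-free 2% FBS medium, treated 5 days at 37° C. with compound from 10 μM top concentration. HBV DNA in supernatant quantified by TaqMan qPCR of core sequence against DNA standards, relative to DMSO wells; CellTiter-Glo viability read in parallel. EC50/CC50 from four-parameter logistic fit.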

First: CN1[C@@H](C(=O)Nc2ccc(F)c(Cl)c2)C[C@@H](c2ccc(-c3cncn3C)s2)NS1(=O)=O [HBV-CSU-267-ISO-II, Cis-N-(3-Chloro-4-fluorophenyl)-2-methyl-5-(5-(1-methyl-1H-imidazol-5-yl)thiophen-2-yl)-1,2,6-thiadiazinane-3-carboxamide 1,1-dioxide]
Second: CN1[C@H](C(=O)Nc2ccc(F)c(Cl)c2)C[C@@H](c2ccc(-c3cnn(C)c3)s2)NS1(=O)=O (racemic) [HBV-CSU-161-Trans (Rac), Trans-N-(3-chloro-4-fluorophenyl)-2-methyl-5-(5-(1-methyl-1H-pyrazol-4-yl)thiophen-2-yl)-1,2,6-thiadiazinane-3-carboxamide 1,1-dioxide]
The EC50 of the first is lower: less than 1000 nM for the first, 1000 to 5000 nM for the second. The first is the more potent here.

Compared with `CCOCCN1[C@@H](C(=O)Nc2ccc(F)c(Cl)c2)C[C@@H](c2nccs2)NS1(=O)=O` [HBV-CSU-142-ISO-I, Cis-N-(3-Chloro-4-fluorophenyl)-2-(2-ethoxyethyl)-5-(thiazol-2-yl)-1,2,6-thiadiazinane-3-carboxamide 1,1-dioxide], `C#CCCN1[C@H](C(=O)Nc2ccc(F)c(Cl)c2)C[C@H](c2nccs2)NS1(=O)=O` [HBV-CSU-090-ISO-I, Cis-2-(But-3-yn-1-yl)-N-(3-chloro-4-fluorophenyl)-5-(thiazol-2-yl)-1,2,6-thiadiazinane-3-carboxamide 1,1-dioxide] is lower in EC50: 1000 to 5000 nM for the first, less than 1000 nM for the second.

Going from `CN1[C@@H](C(=O)Nc2ccc(F)c(Cl)c2)C[C@@H](c2cc(Cl)c(-c3cnn(C)c3)s2)NS1(=O)=O` [HBV-CSU-302-ISO-II, Cis-N-(3-Chloro-4-fluorophenyl)-5-(4-chloro-5-(1-methyl-1H-pyrazol-4-yl)thiophen-2-yl)-2-methyl-1,2,6-thiadiazinane-3-carboxamide 1,1-dioxide] to `CN1C(C(=O)Nc2ccc(F)c(Cl)c2)CC(c2ccc(-c3cnn(C(F)(F)F)c3)s2)NS1(=O)=O` (stereo not drawn) [HBV-CSU-321], the EC50 falls from greater than 5000 nM to less than 1000 nM. The second is the more potent here.

First: C[C@H]1C[C@@H](C(=O)Nc2ccc(F)c(Cl)c2)N(C)S(=O)(=O)N1 [HBV-CSU-050-ISO-I, Cis-N-(3-chloro-4-fluorophenyl)-2,5-dimethyl-1,2,6-thiadiazinane-3-carboxamide 1,1-dioxide]
Second: CN1C(C(=O)Nc2ccc(F)c(Cl)c2)CC(c2ccc3ncsc3c2)NS1(=O)=O (stereo not drawn) [HBV-CSU-273, Cis-5-(benzo[d]thiazol-6-yl)-N-(3-chloro-4-fluorophenyl)-2-methyl-1,2,6-thiadiazinane-3-carboxamide 1,1-dioxide]
The EC50 of the first is higher: 1000 to 5000 nM for the first, less than 1000 nM for the second.

First: CN1[C@H](C(=O)Nc2ccc(F)c(Cl)c2)C[C@@H](c2ncc(-c3cn(C)cn3)s2)NS1(=O)=O [HBV-CSU-276-Trans-ISO-II, (3S,5S)-N-(3-chloro-4-fluorophenyl)-2-methyl-5-(5-(1-methyl-1H-imidazol-4-yl)thiazol-2-yl)-1,2,6-thiadiazinane-3-carboxamide 1,1-dioxide]
Second: Cc1nn(C)c(C)c1-c1ccc([C@H]2C[C@@H](C(=O)Nc3ccc(F)c(Cl)c3)N(C)S(=O)(=O)N2)s1 [HBV-CSU-314-ISO-I, Cis-N-(3-chloro-4-fluorophenyl)-2-methyl-5-(5-(1,3,5-trimethyl-1H-pyrazol-4-yl)thiophen-2-yl)-1,2,6-thiadiazinane-3-carboxamide 1,1-dioxide]
The EC50 of the first is higher: 1000 to 5000 nM for the first, less than 1000 nM for the second. The second is the more potent here.

Going from `[2H]C1[C@]([2H])(c2ccc(-c3cnn(C([2H])([2H])[2H])c3)s2)NS(=O)(=O)N(C([2H])([2H])[2H])[C@]1([2H])C(=O)Nc1ccc(F)c(Cl)c1` (stereo in doubt) [HBV-CSU-379-ISO-I, Cis-N-(3-Chloro-4-fluorophenyl)-2-(methyl-d3)-5-(5-(1-(methyl-d3)-1H-pyrazol-4-yl)thiophen-2-yl)-1,2,6-thiadiazinane-3,4,5-d3-3-carboxamide 1,1-dioxide] to `CN1C(C(=O)Nc2ccc(C#N)cc2)CC(c2cccs2)NS1(=O)=O` (stereo not drawn) [HBV-CSU-019, Cis-N-(4-cyanophenyl)-2-methyl-5-(thiophen-2-yl)-1,2,6-thiadiazinane-3-carboxamide 1,1-dioxide], the EC50 rises from less than 1000 nM to greater than 5000 nM.
